# Experimental data: US8183380B2, “2-aminoquinolines” (Hoffmann-La Roche Inc., priority 2008, dated 2012)
# Where a name gives a salt, the structure may show the parent alone.
# Target: T1, recombinant human 5-HT5A receptor (Homo sapiens, UniProt P47898)
# T1 construct: expressed in transfected cells; host or cells: HEK-EBNA (Human Embryonic Kidney-EBNA) cells, transient cDNA expression; membranes
# Experiment: [3H]LSD radioligand binding assay
# Conditions: [3H]LSD (approximately 1 nM); membranes from transiently expressed 5-HT5A receptors in HEK-EBNA cells; Ki from IC50 by Cheng-Prussoff equation
# Experimental: A [^3H]LSD radioligand binding assay was used to determine the affinity of the compounds for the recombinant human 5-HT5A receptor, in membranes from transiently (cDNA) expressed 5-HT5A receptors in Human Embryonic Kidney-EBNA (HEK-EBNA) cells. Assay buffer consisted of Tris (50 mM) buffer containing 1 mM EGTA, 10 mM MgCl2 (pH 7.4) and 10 μM pargyline. The binding assay was carried out in 96-well-plates in the presence of [^3H]LSD (approximately 1 nM), approximately 2 μg/well of membrane protein, and 0.5 mg of Ysi-poly-1-lysine SPA beads in a final volume of 200 μl of buffer. Non-specific binding was defined using methiothepin 2 μM. Compounds were tested at 10 concentrations. All assays were conducted in duplicate and repeated at least two times. Assay plates were incubated for 120 min at room temperature before centrifugation. Bound ligand was determined using a Packard Topcount scintillation counter. IC50 values were calculated using a non-linear curve fitting program and Ki values calculated using the Cheng-Prussoff equation.
# T1 sequence (P47898 whole entry): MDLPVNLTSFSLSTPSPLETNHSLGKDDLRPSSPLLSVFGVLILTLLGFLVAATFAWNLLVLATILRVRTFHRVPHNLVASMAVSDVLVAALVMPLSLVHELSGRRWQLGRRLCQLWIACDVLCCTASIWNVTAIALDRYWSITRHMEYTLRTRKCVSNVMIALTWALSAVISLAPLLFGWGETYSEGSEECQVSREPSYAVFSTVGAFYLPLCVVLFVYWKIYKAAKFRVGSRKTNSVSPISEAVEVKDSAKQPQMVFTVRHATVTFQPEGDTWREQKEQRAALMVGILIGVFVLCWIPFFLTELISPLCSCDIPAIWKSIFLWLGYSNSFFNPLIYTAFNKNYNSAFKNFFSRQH
row,Compound,Ki
1,"COc1cccc2c1C(Nc1ccc3cc(NC(=O)N[C@@H]4C[C@H]5CC[C@@H](C4)N5C(C)C)ccc3n1)CC2 (mixture of isomers) [Example 186, rac-1-((3-exo)-8-Isopropyl-8-aza-bicyclo[3.2.1]oct-3-yl)-3-[2-(7-methoxy-indan-1-ylamino)-quinolin-6-yl]-urea]",5.7 nM
2,"COc1cccc2c1C(Nc1ccc3cc(NC(=O)N(C)[C@@H]4C[C@H]5CC[C@@H](C4)N5C(C)C)ccc3n1)CC2 (mixture of isomers) [Example 188, rac-1-((3-exo)-8-Isopropyl-8-aza-bicyclo[3.2.1]oct-3-yl)-3-[2-(7-methoxy-indan-1-ylamino)-quinolin-6-yl]-1-methyl-urea]",8.5 nM
3,"COc1cccc2c1C(Nc1ccc3cc(NC(=O)C4CC4)ccc3n1)CO2 (racemic) [Example 195, rac-Cyclopropanecarboxylic acid [2-(4-methoxy-2,3-dihydro-benzofuran-3-ylamino)-quinolin-6-yl]-amide]",7.3 nM
4,"O=C(Nc1ccc2nc(NC3CCc4cc(F)ccc43)ccc2c1)NC1CCN(CCO)CC1 (racemic) [Example 197, rac-1-[2-(5-Fluoro-indan-1-ylamino)-quinolin-6-yl]-3-[1-(2-hydroxy-ethyl)-piperidin-4-yl]-urea]",3.5 nM
5,"COc1cccc2c1C(Nc1ccc3cc(NC(=O)N(C)C4CCN(CCO)CC4)ccc3n1)CC2 (racemic) [Example 206, rac-1-[1-(2-Hydroxy-ethyl)-piperidin-4-yl]-3-[2-(7-methoxy-indan-1-ylamino)-quinolin-6-yl]-1-methyl-urea]",6.7 nM
6,"CC(C)NC(=O)Nc1ccc2nc(N[C@@H]3CCc4ccccc43)ccc2c1 [Example 3, 1-[2-((R)-Indan-1-ylamino)-quinolin-6-yl]-3-isopropyl-urea]",2.5 nM
7,"CNC(=O)Nc1ccc2nc(N[C@@H]3CCc4ccccc43)ccc2c1 [Example 7, 1-[2-((R)-Indan-1-ylamino)-quinolin-6-yl]-3-methyl-urea]",3.4 nM
8,"CC(C)(C)NC(=O)Nc1ccc2nc(N[C@@H]3CCc4ccccc43)ccc2c1 [Example 8, 1-tert-Butyl-3-[2-((R)-indan-1-ylamino)-quinolin-6-yl]-urea]",10.9 nM
9,"COCCNC(=O)Nc1ccc2nc(N[C@@H]3CCc4ccccc43)ccc2c1 [Example 17, 1-[2-((R)-Indan-1-ylamino)-quinolin-6-yl]-3-(2-methoxy-ethyl)-urea]",7 nM
10,"CN(C)CCNC(=O)Nc1ccc2nc(N[C@@H]3CCc4ccccc43)ccc2c1 [Example 18, 1-(2-Dimethylamino-ethyl)-3-[2-((R)-indan-1-ylamino)-quinolin-6-yl]-urea]",7.3 nM
11,"CN1CCC(NC(=O)Nc2ccc3nc(N[C@@H]4CCc5ccccc54)ccc3c2)CC1 [Example 20, 1-[2-((R)-Indan-1-ylamino)-quinolin-6-yl]-3-(1-methyl-piperidin-4-yl)-urea]",1.8 nM
12,"O=C(Nc1ccc2nc(N[C@@H]3CCc4ccccc43)ccc2c1)NC1CC1 [Example 21, 1-Cyclopropyl-3-[2-((R)-indan-1-ylamino)-quinolin-6-yl]-urea]",3.9 nM
13,"O=C(NCC1CC1)Nc1ccc2nc(N[C@@H]3CCc4ccccc43)ccc2c1 [Example 23, 1-Cyclopropylmethyl-3-[2-((R)-indan-1-ylamino)-quinolin-6-yl]-urea]",4.7 nM
14,"O=C(Nc1ccc2nc(N[C@@H]3CCc4ccccc43)ccc2c1)NC1CC2CCC1C2 (stereo partly drawn) [Example 26, 1-Bicyclo[2.2.1]hept-2-yl-3-[2-((R)-indan-1-ylamino)-quinolin-6-yl]-urea]",4.8 nM
15,"O=C(Nc1ccc2nc(N[C@@H]3CCc4ccccc43)ccc2c1)NC1CCNCC1 [Example 39, 1-[2-((R)-Indan-1-ylamino)-quinolin-6-yl]-3-piperidin-4-yl-urea]",3.9 nM
16,"CC(C)N1CCC(NC(=O)Nc2ccc3nc(N[C@@H]4CCc5ccccc54)ccc3c2)CC1 [Example 42, 1-[2-((R)-Indan-1-ylamino)-quinolin-6-yl]-3-(1-isopropyl-piperidin-4-yl)-urea]",2.4 nM
17,"CSCCN1CCC(NC(=O)Nc2ccc3nc(N[C@@H]4CCc5ccccc54)ccc3c2)CC1 [Example 48, 1-[2-((R)-Indan-1-ylamino)-quinolin-6-yl]-3-[1-(2-methylsulfanyl-ethyl)-piperidin-4-yl]-urea]",7.7 nM
18,"O=C(Nc1ccc2nc(N[C@@H]3CCc4ccccc43)ccc2c1)NC1CCN(CCC(F)(F)F)CC1 [Example 63, 1-[2-((R)-Indan-1-ylamino)-quinolin-6-yl]-3-[1-(3,3,3-trifluoro-propyl)-piperidin-4-yl]-urea]",10.4 nM
19,"NS(=O)(=O)Nc1ccc2nc(N[C@@H]3CCc4ccccc43)ccc2c1 [Example 72, N-{2-[(1R)-2,3-dihydro-1H-inden-1-ylamino]quinolin-6-yl}sulfamide hydrochloride]",8.4 nM
20,"O=S(=O)(Nc1ccc2nc(N[C@@H]3CCc4ccccc43)ccc2c1)N1CCCC1 [Example 73, Pyrrolidine-1-sulfonic acid [2-((R)-indan-1-ylamino)-quinolin-6-yl]-amide]",3.2 nM
21,"O=S(=O)(Nc1ccc2nc(N[C@@H]3CCc4ccccc43)ccc2c1)N1CCOCC1 [Example 76, Morpholine-4-sulfonic acid [2-((R)-indan-1-ylamino)-quinolin-6-yl]-amide]",9.9 nM
22,"O=S(=O)(Nc1ccc2nc(N[C@@H]3CCc4ccccc43)ccc2c1)N1CCSCC1 [Example 78, Thiomorpholine-4-sulfonic acid [2-((R)-indan-1-ylamino)-quinolin-6-yl]-amide]",7 nM
23,"O=S(=O)(Nc1ccc2nc(N[C@@H]3CCc4ccccc43)ccc2c1)N1CCC2(CC1)OCCO2 [Example 82, 1,4-Dioxa-8-aza-spiro[4.5]decane-8-sulfonic acid [2-((R)-indan-1-ylamino)-quinolin-6-yl]-amide]",22.2 nM
24,"CN(C1CC1)S(=O)(=O)Nc1ccc2nc(N[C@@H]3CCc4ccccc43)ccc2c1 [Example 85, N-cyclopropyl-N′-{2-[(1R)-2,3-dihydro-1H-inden-1-ylamino]quinolin-6-yl}-N-methylsulfamide]",9.3 nM

# Further molecules by falling Ki, results first:
row,Ki,Compound
1,8.9 nM,"O=S(=O)(Nc1ccc2nc(N[C@@H]3CCc4ccccc43)ccc2c1)N1CCC(F)(F)C1 [Example 74, 3,3-Difluoro-pyrrolidine-1-sulfonic acid [2-((R)-indan-1-ylamino)-quinolin-6-yl]-amide]"
2,8.2 nM,"CN(CCNC(=O)Nc1ccc2nc(N[C@@H]3CCc4ccccc43)ccc2c1)C1CC1 [Example 32, 1-[2-(Cyclopropyl-methyl-amino)-ethyl]-3-[2-((R)-indan-1-ylamino)-quinolin-6-yl]-urea]"
3,6.9 nM,"COc1cccc2c1C(Nc1ccc3cc(NC(=O)N(C)C4CCN(CC(C)(C)O)CC4)ccc3n1)CC2 (racemic) [Example 191, rac-1-[1-(2-Hydroxy-2-methyl-propyl)-piperidin-4-yl]-3-[2-(7-methoxy-indan-1-ylamino)-quinolin-6-yl]-1-methyl-urea]"
4,6.8 nM,"COc1cccc2c1C(Nc1ccc3cc(NS(=O)(=O)N4C[C@@H]5C[C@H]4CO5)ccc3n1)CCC2 (stereo partly drawn) [Example 91, (1S,4S)-2-Oxa-5-aza-bicyclo[2.2.1]heptane-5-sulfonic acid [2-(8-methoxy-1,2,3,4-tetrahydro-naphthalen-1-ylamino)-quinolin-6-yl]-amide]"
5,5.6 nM,"CN(C)S(=O)(=O)Nc1ccc2nc(N[C@@H]3CCc4ccccc43)ccc2c1 [Example 66, N′-{2-[(1R)-2,3-dihydro-1H-inden-1-ylamino]quinolin-6-yl}-N,N-dimethylsulfamide]"
6,4.1 nM,"O=C(Nc1ccc2nc(N[C@@H]3CCc4ccccc43)ccc2c1)NC1CCN(C2CC2)CC1 [Example 41, 1-(1-Cyclopropyl-piperidin-4-yl)-3-[2-((R)-indan-1-ylamino)-quinolin-6-yl]-urea]"
7,4 nM,"O=C(Nc1ccc2nc(N[C@@H]3CCc4ccccc43)ccc2c1)NC1CCOCC1 [Example 19, 1-[2-((R)-Indan-1-ylamino)-quinolin-6-yl]-3-(tetrahydro-pyran-4-yl)-urea]"
8,2.9 nM,"O=C(Nc1ccc2nc(N[C@@H]3CCc4ccccc43)ccc2c1)NC1CCCCC1 [Example 5, 1-Cyclohexyl-3-[2-((R)-indan-1-ylamino)-quinolin-6-yl]-urea]"
9,2.9 nM,"NC(=O)Nc1ccc2nc(N[C@@H]3CCc4ccccc43)ccc2c1 [Example 9, [2-((R)-Indan-1-ylamino)-quinolin-6-yl]-urea]"
10,2.5 nM,"COCCN1CCC(NC(=O)Nc2ccc3nc(N[C@@H]4CCc5ccccc54)ccc3c2)CC1 [Example 43, 1-[2-((R)-Indan-1-ylamino)-quinolin-6-yl]-3-[1-(2-methoxy-ethyl)-piperidin-4-yl]-urea]"
11,2.5 nM,"O=S(=O)(Nc1ccc2nc(N[C@@H]3CCc4ccccc43)ccc2c1)N1C[C@@H]2C[C@H]1CO2 [Example 88, (1S,4S)-2-Oxa-5-aza-bicyclo[2.2.1]heptane-5-sulfonic acid [2-((R)-indan-1-ylamino)-quinolin-6-yl]-amide]"
12,1.8 nM,"COc1cccc2c1C(Nc1ccc3cc(NC(=O)NC4CCN(CCO)CC4)ccc3n1)CC2 (racemic) [Example 189, rac-1-[1-(2-Hydroxy-ethyl)-piperidin-4-yl]-3-[2-(7-methoxy-indan-1-ylamino)-quinolin-6-yl]-urea]"
13,0.9 nM,"COc1cccc2c1C(Nc1ccc3cc(NC(=O)NC(C)C)ccc3n1)CC2 (single isomer, unassigned; (-)) [Example 13, (−)-1-Isopropyl-3-[2-(7-methoxy-indan-1-ylamino)-quinolin-6-yl]-urea]"
